Measurements as given in patent US12655142B2 (Merck Patent GmbH, priority 2019, dated 2026).
pIC50: −log10 of the molar value.

How the values were obtained:
c-Kit(V654A) = molecular target: T1, c-Kit(V654A) (Homo sapiens, UniProt P10721, V654A); assay: c-Kit(V654A) assay (33P-ATP filter binding kinase assay); format: biochemical; details: recombinant human c-Kit aa 544-end V654A, ATP 200 μM
T1 construct: recombinant human c-Kit, amino acids 544-end containing the V654A mutation; GST (N)
How it was run: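 Radiometric filter-binding read-out: substrate 33P incorporation counted by scintillation after P30 filtermat washes in 75 mM phosphoric acid and methanol. Enzyme: N-GST recombinant human c-Kit aa 544-end carrying V654A.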

[1] = molecular target: T2, GIST430/654 cell line expressing mutated constitutively active cKIT receptor tyrosine kinase (Δ560-576 deletion and V654A point mutation) (Homo sapiens, UniProt P10721, DEL560-576/V654A); assay: Cellular cKIT autophosphorylation (phospho-Y307-cKIT, Luminex bead assay) in GIST430/654 cells; format: cell-based; details: compounds 45 min, read-out: GIST 430/654 IC50
T2 construct: endogenous in cells; host or cells: GIST430/654 cells
How it was run: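 Phospho-Y307 cKIT in lysates was measured on a Luminex bead assay, with total-cKIT capture overnight at 4 °C and phosphospecific plus PE secondary detection. Cells had 45 min exposure to a compound dilution series the day after plating: GIST430 (Δ560-576) or GIST430/654 (Δ560-576/V654A, grown with 100 nM imatinib). IC50 values are relative to 0.3% DMSO-treated cells.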

T2 sequence (P10721 with tags, fused parts or gaps DEL560-576/V654A): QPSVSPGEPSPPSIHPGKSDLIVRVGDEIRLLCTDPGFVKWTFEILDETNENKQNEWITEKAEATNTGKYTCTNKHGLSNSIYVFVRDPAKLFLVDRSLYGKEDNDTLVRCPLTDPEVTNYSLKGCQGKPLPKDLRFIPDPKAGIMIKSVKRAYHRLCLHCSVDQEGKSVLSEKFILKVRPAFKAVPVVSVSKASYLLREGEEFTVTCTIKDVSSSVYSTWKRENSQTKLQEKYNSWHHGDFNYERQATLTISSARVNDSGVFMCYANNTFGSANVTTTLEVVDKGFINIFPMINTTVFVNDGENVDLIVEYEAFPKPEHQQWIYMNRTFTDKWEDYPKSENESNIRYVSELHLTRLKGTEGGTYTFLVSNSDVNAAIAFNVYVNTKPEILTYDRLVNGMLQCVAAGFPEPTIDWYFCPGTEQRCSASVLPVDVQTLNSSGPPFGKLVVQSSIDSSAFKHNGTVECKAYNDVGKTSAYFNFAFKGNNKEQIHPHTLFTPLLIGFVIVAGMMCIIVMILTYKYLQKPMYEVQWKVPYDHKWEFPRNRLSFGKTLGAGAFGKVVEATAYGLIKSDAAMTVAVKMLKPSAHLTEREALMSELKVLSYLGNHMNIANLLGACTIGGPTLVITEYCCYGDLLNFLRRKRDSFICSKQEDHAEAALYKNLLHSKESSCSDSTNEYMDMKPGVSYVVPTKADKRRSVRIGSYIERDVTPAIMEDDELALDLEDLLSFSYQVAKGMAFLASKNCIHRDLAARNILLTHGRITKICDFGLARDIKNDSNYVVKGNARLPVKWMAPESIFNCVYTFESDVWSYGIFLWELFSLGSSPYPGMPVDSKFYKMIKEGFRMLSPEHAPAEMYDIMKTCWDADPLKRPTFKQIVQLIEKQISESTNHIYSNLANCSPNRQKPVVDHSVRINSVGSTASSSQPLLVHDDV
T1 sequence (P10721 544-976 V654A): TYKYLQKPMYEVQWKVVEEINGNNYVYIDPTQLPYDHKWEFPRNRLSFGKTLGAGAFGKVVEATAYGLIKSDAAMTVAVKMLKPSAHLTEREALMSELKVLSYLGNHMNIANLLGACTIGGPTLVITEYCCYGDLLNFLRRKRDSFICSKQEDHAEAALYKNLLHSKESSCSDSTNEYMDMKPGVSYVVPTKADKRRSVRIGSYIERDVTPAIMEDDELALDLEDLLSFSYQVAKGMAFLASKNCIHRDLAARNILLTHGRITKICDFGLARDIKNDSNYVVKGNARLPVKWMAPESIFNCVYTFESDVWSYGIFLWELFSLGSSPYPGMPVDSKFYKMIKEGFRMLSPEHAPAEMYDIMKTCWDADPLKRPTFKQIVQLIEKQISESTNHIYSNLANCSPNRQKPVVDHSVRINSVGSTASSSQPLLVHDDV

| pIC50 (c-Kit(V654A)) | pIC50 [1] | SMILES |
| --- | --- | --- |
| 8.02 | 6.92 | Cn1cc(-c2ccc(CNc3cc(-c4cnc5cc(OCCN6CC7CC(C6)O7)ccn45)ncn3)cc2)cn1 [A103, [4-(1-methyl-1H-pyrazol-4-yl)-benzyl]-(6-{7-[2-(6-oxa-3-aza-bicyclo[3.1.1]hept-3-yl)-ethoxy]-imidazo[1,2-a]pyridin-3-yl}-pyrimidin-4-yl)-amine] |
| 7.26 | 6.19 | COc1ccn2c(-c3cc(NCc4ccc(-c5cn(C)cn5)cc4)ncn3)cnc2c1 [A20, [6-(7-methoxy-imidazo[1,2-a]pyridin-3-yl)-pyrimidin-4-yl]-[4-(1-methyl-1H-imidazol-4-yl)-benzyl]-amine] |
| 8.37 | 7.06 | CC(COc1ccn2c(-c3cc(NCc4ccc(-c5cnn(C)c5)cc4)ncn3)cnc2c1)CN1CCCC1 (centres unmarked) [A235, [4-(1-methyl-1H-pyrazol-4-yl)-benzyl]-{6-[7-(2-methyl-3-pyrrolidin-1-yl-propoxy)-imidazo[1,2-a]pyridin-3-yl]-pyrimidin-4-yl}-amine] |
| 7.96 | 7.09 | CN(C)CCOc1ccn2c(-c3cc(NCc4ccc(-c5cnn(C)c5)cc4)ncn3)cnc2c1 [A59, 6-{7-[2-(dimethylamino)ethoxy]imidazo[1,2-a]pyridin-3-yl}-N-{[4-(1-methyl-1H-pyrazol-4-yl)phenyl]methyl}pyrimidin-4-amine] |
| 8.22 | 7.52 | CN1CCO[C@@H](COc2ccn3c(-c4cc(NCc5ccc(-c6cnn(C)c6)cc5)ncn4)cnc3c2)C1 [A117, {6-[7-((R)-4-methyl-morpholin-2-ylmethoxy)-imidazo[1,2-a]pyridin-3-yl]-pyrimidin-4-yl}-[4-(1-methyl-1H-pyrazol-4-yl)-benzyl]-amine] |
| 8.14 | 7.05 | COc1ccn2c(-c3cc(NCc4ccc(-c5cnn(C6CC6)c5)cc4)ncn3)cnc2c1 [A49, [4-(1-cyclopropyl-1H-pyrazol-4-yl)-benzyl]-[6-(7-methoxy-imidazo[1,2-a]pyridin-3-yl)-pyrimidin-4-yl]-amine] |
| 7.96 | 6.57 | Cn1cc(-c2ccc(CNc3cc(-c4cnc5cc(OC6CCOC6)ccn45)ncn3)cc2)cn1 (centres unmarked) [A57, [4-(1-methyl-1H-pyrazol-4-yl)-benzyl]-{6-[7-(tetrahydro-furan-3-yloxy)-imidazo[1,2-a]pyridin-3-yl]-pyrimidin-4-yl}-amine] |
| 7.26 | 6.15 | COc1ccn2c(-c3cc(NCc4ccc(N5CC6CCC(C5)O6)cc4)ncn3)cnc2c1 [A38, [6-(7-methoxy-imidazo[1,2-a]pyridin-3-yl)-pyrimidin-4-yl]-[4-(8-oxa-3-aza-bicyclo[3.2.1]oct-3-yl)-benzyl]-amine] |
| 8.70 | 6.68 | CN(C)CCCOc1ccn2c(-c3cc(NCc4ccc(-c5cnn(C)n5)cc4)ncn3)cnc2c1 [A135, {6-[7-(3-dimethylamino-propoxy)-imidazo[1,2-a]pyridin-3-yl]-pyrimidin-4-yl}-[4-(2-methyl-2H-[1,2,3]triazol-4-yl)-benzyl]-amine] |
| 7.40 | 6.59 | Cn1ncc(-c2ccc(CNc3cc(-c4cnc5cc(OCc6cccnc6)ccn45)ncn3)cc2)n1 [A112, [4-(2-methyl-2H-[1,2,3]triazol-4-yl)-benzyl]-{6-[7-(pyridin-3-ylmethoxy)-imidazo[1,2-a]pyridin-3-yl]-pyrimidin-4-yl}-amine] |
| 8.17 | 7.00 | Cn1cc(-c2ccc(CNc3cc(-c4cnc5cc(OCCN6CC7CC7C6)ccn45)ncn3)cc2)cn1 (centres unmarked) [A127, (6-{7-[2-(3-aza-bicyclo[3.1.0]hex-3-yl)-ethoxy]-imidazo[1,2-a]pyridin-3-yl}-pyrimidin-4-yl)-[4-(1-methyl-1H-pyrazol-4-yl)-benzyl]-amine] |
| 7.80 | 6.85 | Cn1ncc(-c2ccc(CNc3cc(-c4cnc5cc(OCCc6cccnc6)ccn45)ncn3)cc2)n1 [A126, [4-(2-methyl-2H-[1,2,3]triazol-4-yl)-benzyl]-{6-[7-(2-pyridin-3-yl-ethoxy)-imidazo[1,2-a]pyridin-3-yl]-pyrimidin-4-yl}-amine] |
| 8.21 | 7.21 | CN1CCC(CCOc2ccn3c(-c4cc(NCc5ccc(-c6cnn(C)c6)cc5)ncn4)cnc3c2)CC1 [A129, (6-{7-[2-(1-methyl-piperidin-4-yl)-ethoxy]-imidazo[1,2-a]pyridin-3-yl}-pyrimidin-4-yl)-[4-(1-methyl-1H-pyrazol-4-yl)-benzyl]-amine] |
| 8.24 | 7.25 | Cn1cc(-c2ccc(CNc3cc(-c4cnc5cc(OCCC6CCN(C7COC7)C6)ccn45)ncn3)cc2)cn1 (centres unmarked) [A123, [4-(1-methyl-1H-pyrazol-4-yl)-benzyl]-(6-{7-[2-(1-oxetan-3-yl-pyrrolidin-3-yl)-ethoxy]-imidazo[1,2-a]pyridin-3-yl}-pyrimidin-4-yl)-amine] |
| 7.28 | 6.13 | COc1ccn2c(-c3cc(NCc4ccc(-c5nccc(OC)n5)cc4)ncn3)cnc2c1 [A34, 6-{7-methoxyimidazo[1,2-a]pyridin-3-yl}-N-{[4-(4-methoxypyrimidin-2-yl)phenyl]methyl}pyrimidin-4-amine] |
| 7.44 | 5.96 | COc1ccn2c(-c3cc(NCc4ccc(-c5ccc(C)nn5)cc4)ncn3)cnc2c1 [A40, 6-{7-methoxyimidazo[1,2-a]pyridin-3-yl}-N-{[4-(6-methylpyridazin-3-yl)phenyl]methyl}pyrimidin-4-amine] |
| 8.09 | 7.06 | Cn1cc(-c2ccc(CNc3cc(-c4cnc5cc(OCCN6CCOCC6=O)ccn45)ncn3)cc2)cn1 [A92, 4-[2-({3-[6-({[4-(1-methyl-1H-pyrazol-4-yl)phenyl]methyl}amino)pyrimidin-4-yl]imidazo[1,2-a]pyridin-7-yl}oxy)ethyl]morpholin-3-one] |
| 8.80 | 7.32 | CN1CCC(CCOc2ccn3c(-c4cc(NCc5ccc(-c6cnn(C)n6)cc5)ncn4)cnc3c2)C1 (centres unmarked) [A116, (6-{7-[2-(1-methyl-pyrrolidin-3-yl)-ethoxy]-imidazo[1,2-a]pyridin-3-yl}-pyrimidin-4-yl)-[4-(2-methyl-2H-[1,2,3]triazol-4-yl)-benzyl]-amine] |
| 8.34 | 7.28 | Cn1ncc(-c2ccc(CNc3cc(-c4cnc5cc(OCCCO)ccn45)ncn3)cc2)n1 [A134, 3-(3-{6-[4-(2-methyl-2H-[1,2,3]triazol-4-yl)-benzylamino]-pyrimidin-4-yl}-imidazo[1,2-a]pyridin-7-yloxy)-propan-1-ol] |
| 7.64 | 6.68 | CN1CCOC[C@H]1COc1ccn2c(-c3cc(NCc4ccc(-c5cnn(C)c5)cc4)ncn3)cnc2c1 [A125, N-{[4-(1-methyl-1H-pyrazol-4-yl)phenyl]methyl}-6-(7-{[(3S)-4-methylmorpholin-3-yl]methoxy}imidazo[1,2-a]pyridin-3-yl)pyrimidin-4-amine] |
| 8.12 | 7.10 | Cn1ncc(-c2ccc(CNc3cc(-c4cnc5cc(OCC(C)(C)N6CCOCC6)ccn45)ncn3)cc2)n1 [A109, {6-[7-(2-methyl-2-morpholin-4-yl-propoxy)-imidazo[1,2-a]pyridin-3-yl]-pyrimidin-4-yl}-[4-(2-methyl-2H-[1,2,3]triazol-4-yl)-benzyl]-amine] |
| 7.59 | 6.68 | COc1ccn2c(-c3cc(NCc4ccc(-c5cn(C)nc5C)cc4)ncn3)cnc2c1 [A25, [4-(1,3-dimethyl-1H-pyrazol-4-yl)-benzyl]-[6-(7-methoxy-imidazo[1,2-a]pyridin-3-yl)-pyrimidin-4-yl]-amine] |
| 8.19 | 7.00 | Cn1cc(-c2ccc(CNc3cc(-c4cnc5cc(OCCN6CCC[C@@H]7OCC[C@@H]76)ccn45)ncn3)cc2)cn1 [A210, (6-{7-[(3aS,7aS)-2-(hexahydro-furo[3,2-b]pyridin-4-yl)-ethoxy]-imidazo[1,2-a]pyridin-3-yl}-pyrimidin-4-yl)-[4-(1-methyl-1H-pyrazol-4-yl)-benzyl]-amine] |
| 8.30 | 7.37 | CN(C)CCCOc1ccn2c(-c3cc(NCc4ccc(-c5cnn(C)c5)cc4)ncn3)cnc2c1 [A132, {6-[7-(3-dimethylamino-propoxy)-imidazo[1,2-a]pyridin-3-yl]-pyrimidin-4-yl}-[4-(1-methyl-1H-pyrazol-4-yl)-benzyl]-amine] |
| 8.02 | 7.11 | Cn1cc(-c2ccc(CNc3cc(-c4cnc5cc(OCCN6C[C@@H](F)[C@@H](F)C6)ccn45)ncn3)cc2)cn1 [A209, (6-{7-[2-((3S,4R)-3,4-difluoro-pyrrolidin-1-yl)-ethoxy]-imidazo[1,2-a]pyridin-3-yl}-pyrimidin-4-yl)-[4-(1-methyl-1H-pyrazol-4-yl)-benzyl]-amine] |
| 7.89 | 6.62 | COc1cc2ncc(-c3cc(NCc4ccc(-c5cnn(C)c5)cc4)ncn3)n2cc1F [A69, [6-(6-fluoro-7-methoxy-imidazo[1,2-a]pyridin-3-yl)-pyrimidin-4-yl]-[4-(1-methyl-1H-pyrazol-4-yl)-benzyl]-amine] |
| 7.66 | 6.19 | Cn1cc(-c2ccc(CNc3cc(-c4cnc5cc(OC6CCOCC6)ccn45)ncn3)cc2)cn1 [A55, [4-(1-methyl-1H-pyrazol-4-yl)-benzyl]-{6-[7-(tetrahydro-pyran-4-yloxy)-imidazo[1,2-a]pyridin-3-yl]-pyrimidin-4-yl}-amine] |
| 7.68 | 6.42 | Cn1cc(-c2ccc(CNc3cc(-c4cnc5cc(OCCCS(C)(=O)=O)ccn45)ncn3)cc2)cn1 [A143, {6-[7-(3-methanesulfonyl-propoxy)-imidazo[1,2-a]pyridin-3-yl]-pyrimidin-4-yl}-[4-(1-methyl-1H-pyrazol-4-yl)-benzyl]-amine] |
